Assay results: US10495560B2, “Method of screening drugs” (KOREA RESEARCH INSTITUTE OF STANDARDS AND SCIENCE, priority 2015, dated 2019)

What was measured:
[1] = tested on: ARPE-19 human retinal epithelial cells; test: Blind test: screening of drugs by capacitance of the cell layer; type: cell-based
Protocol: After culturing ARPE-19 (retinal pigmented epithelium, American Type Culture Collection (ATCC), ATCC® CRL-2302™), which is human retinal epithelial cells, instead of bEND.3 similarly to the case of using bEND.3, the cultured ARPE-19 was seeded in the same sensor as that used at the time of measuring bEND.3 so that coverage was 100%. Then, stabilization (fixation) was performed under the same conditions and time as those at the time of stabilizing bEND.3.
After the cells were cultured for stabilization for 24 hours, the culture medium was exchanged.
As the exchanged medium, a reference culture medium containing tumor necrosis factor-alpha (TNF-α, R&D system, 210-TA-020/CF, 10 ng/ml) or a reference culture medium containing tumor necrosis factor-alpha (TNF-α, R&D system, 210-TA-020/CF 10 ng/ml) and TNF-α antibody (Human TNF-alpha MAb, R&D system, MAB610, 2 μg/ml) was prepared. In this case, as the reference culture medium, DMEM:F12 containing 1 vol % penicillin-streptomycin (Gibco) was used similarly to the case of using bEND.3.
After stabilization was performed, medium exchange was randomly performed on each well using the prepared culture media. In this case, medium exchange was performed on a well (reference sample) at a predetermined position using a pure reference culture medium not containing TNF-α or TNF-α antibody, such that a frequency-dependent reference capacitance value at each measurement time was also simultaneously obtained.
Capacitance was measured under the same conditions and the same time interval as those in the case of using bEND.3.
After measurement was performed, in each well, in the case in which an absolute value of an alpha value at a time point (t=50 h based on stabilization) after 26 hours of medium exchange is smaller than an absolute value of a reference alpha value at the same time point, the drug was screened as a drug increasing paracellular permeability. […]

[2] = tested on: tight junction proteins (ZO-1) in ARPE-19 cells; test: Immunocytochemistry (ZO-1 and DAPI staining) after the blind test; type: cell-based, human; settings: FIG. 9
Protocol: After performing the screening, as described above, fluorescent staining (using ZO-1 and DAPI) was performed on the endothelial cell layer fixed between two electrodes using immunocytochemistry, and then the endothelial cell layer was observed. FIG. 9A illustrates results of the reference sample, FIG. 9B illustrates results of the sample of which the medium was exchanged with the medium containing TNF-α, and FIG. 9C illustrates results of the sample of which the medium was exchanged with the medium containing both of TNF-α and TNF-α antibody.

TNF-α
standardized capacitance value ([1]; 100 Hz, standardized to start of stabilization, 48 hours after medium exchange (t=72 h), reference sample 1.44): 1.31 | time for which the standardized capacitance value was continuously decreased ([1]; 100 Hz, based on a time point (t=34 h) after 10 hours of medium exchange): 48 h | screening result (drug increasing paracellular permeability) ([1]; TNF-α 10 ng/ml, three independent criteria (alpha value at 26 h, standardized capacitance at 48 h, continuous decrease at 100 Hz)): screened as wells contacting the drug increasing paracellular permeability | alignment of tight junction proteins [2]: disturbed
